Values after ≈ are worked out from the molar mass of the structure shown. Read-outs that look alike come from different tables or passages of the source.
Tests used:
[1] = system: VRE; assay: MIC, broth microdilution, clinical isolates: VRE; format: cell-based, vancomycin-resistant Enterococcus; details: for MIC50: read-out: MIC50
Experimental: (§1) To assess the MICs for antibiotic susceptibility, Gram-positive bacteria isolated from human clinical specimens were obtained from several general hospitals in Seoul, Korea, during 2002–2018. Staphylococcus aureus Giorgio and Streptococcus pneumoniae ATCC49619 were used to test in vivo efficacies against […], in mice.
(§2) The MICs of the antimicrobial agents were determined by a twofold microdilution broth method, as described by the Clinical and Laboratory Standards Institute. Briefly, test organisms were grown on Mueller–Hinton agar (MHA, BD Difco, Sparks, MD, USA) plates, subcultured into cation-adjusted Mueller–Hinton broth (CAMHB, BD Difco, Sparks, MD, USA), and incubated for 18 h at 35 °C. For S. pneumoniae culture, 5% sheep blood (Hanil Comed, Seongnam, Korea) was added. The cultured bacteria were diluted using phosphate-buffered saline (PBS) to achieve a bacterial cell density of approximately 5 × 10^6 CFU/mL. All test organisms were loaded into 96-well plates containing serial dilutions of the antimicrobial agents to achieve a concentration of 5 × 10^4 CFU/well. The plates were incubated at 35 °C for 18–20 h and examined for bacterial growth.

[2] = system: Vancomycin-sensitive E. faecalis; assay: MIC, broth microdilution, clinical isolates: vancomycin-sensitive E. faecalis; format: cell-based, Enterococcus faecalis; details: Enterococcus faecalis, 32 clinical isolates; for MIC50: read-out: MIC50; for MIC90: read-out: MIC90
Experimental: as §1, §2

[3] = system: MSSA; assay: MIC, broth microdilution, clinical isolates: MSSA; format: cell-based; details: Staphylococcus aureus; for MIC90: read-out: MIC90
Experimental: as §1, §2

[4] = system: S. pneumoniae; assay: MIC, broth microdilution, clinical isolates: S. pneumoniae; format: cell-based, Streptococcus pneumoniae; details: for MIC50: read-out: MIC50
Experimental: as §1, §2

[5] = system: Vancomycin-sensitive E. faecium; assay: MIC, broth microdilution, clinical isolates: vancomycin-sensitive E. faecium; format: cell-based, Enterococcus faecium; details: Enterococcus faecium, 32 clinical isolates; for MIC50: read-out: MIC50; for MIC90: read-out: MIC90
Experimental: as §1, §2

[6] = system: MRSA; assay: MIC, broth microdilution, clinical isolates: MRSA; format: cell-based, Staphylococcus aureus; details: Staphylococcus aureus, MRSA, 42 clinical isolates; for MIC50: read-out: MIC50; for MIC90: read-out: MIC90
Experimental: as §1, §2

[7] = system: CNS (coagulase-negative staphylococci); assay: MIC, broth microdilution, clinical isolates: CNS; format: cell-based; details: 31 clinical isolates; for MIC50: read-out: MIC50; for MIC90: read-out: MIC90
Experimental: as §1, §2

[8] = highly protein-bound antibacterial agents in clinical use; cited from earlier work
[9] = system: S. pneumoniae ATCC49619; assay: Time-kill assay, S. pneumoniae ATCC49619; format: cell-based, Streptococcus pneumoniae; details: 2× and 4× MIC, 24 h
Experimental: (§3) Time-kill analysis was performed by the NCCLS M26-A method. The test organisms (S. aureus Giorgio, S. pneumoniae ATCC49619, MRSA CCARM 3167, and VRE 3) incubated in CAMHB for 18 h at 35 °C were diluted to 10^5 CFU/mL with fresh CAMHB, and the diluted cultures were preincubated for 2 h. For S. pneumoniae culture, 5% sheep blood (Hanil Comed, Seongnam, Korea) was added. […] Culture aliquots (0.1 mL) were removed after 0, 2, 4, 6 and 24 h of incubation, and serial 10-fold dilutions were prepared in saline as needed. The numbers of viable cells were determined on drug-free MHA plates after 20 h of incubation. A compound was considered bactericidal if the original inoculum was reduced by 3 log CFU/mL (99.9%) at each concentration or was considered bacteriostatic if the inoculum was reduced by 0–3 log CFU/mL.

[10] = system: MRSA CCARM 3167; assay: Time-kill assay, MRSA CCARM 3167; format: cell-based, Staphylococcus aureus; details: 2× and 4× MIC, 24 h
Experimental: as §3

[11] = system: S. aureus Giorgio; assay: Time-kill assay, S. aureus Giorgio; format: cell-based, Staphylococcus aureus; details: 2× and 4× MIC, 24 h
Experimental: as §3

[12] = system: VRE 3; assay: Time-kill assay, VRE 3; format: cell-based, vancomycin-resistant Enterococcus; details: 2× and 4× MIC, 24 h
Experimental: as §3

[13] = Enterococcus, VRE, 46 clinical isolates
[14] = Enterococcus, VRE, 46 clinical isolates, read-out: MIC90
[15] = 26 clinical isolates, read-out: MIC50
[16] = Streptococcus pneumoniae, 27 S. pneumoniae isolates, read-out: MIC90
[17] = Streptococcus pneumoniae, 27 clinical isolates

MIC50 [1, 13] [µg/mL] | MIC90 [1, 14] [µg/mL] | MIC50 [2] [µg/mL] | MIC90 [2] [µg/mL] | MIC50 [3, 15] [µg/mL] | MIC90 ([3]; 26 clinical isolates) [µg/mL] | MIC90 ([4]; 27 clinical isolates) [µg/mL] | MIC90 [4, 16] [µg/mL] | MIC50 [4, 17] [µg/mL] | MIC50 [5] [µg/mL] | MIC90 [5] [µg/mL] | MIC50 [6] [µg/mL] | MIC90 [6] [µg/mL] | MIC50 [7] [µg/mL] | MIC90 [7] [µg/mL] | Compound | further results
> 32 | > 32 | > 32 | > 32 | 4 (≈ 9.36 µM) | 4 (≈ 9.36 µM) | >32 | > 32 | > 32 | > 32 | > 32 | – | – | – | – | CO[C@@]1(NC(=O)Cc2cccs2)C(=O)N2C(C(=O)O)=C(COC(N)=O)CS[C@@H]21 [Cefoxitin] | –
> 32 | > 32 | > 32 | > 32 | 8 (≈ 14.6 µM) | 16 (≈ 29.3 µM) | >32 | > 32 | > 32 | > 32 | > 32 | > 32 | > 32 | 32 (≈ 58.5 µM) | > 32 | CC(C)(O/N=C(\C(=O)N[C@@H]1C(=O)N2C(C(=O)[O-])=C(C[n+]3ccccc3)CS[C@H]12)c1csc(N)n1)C(=O)O [Ceftazidime] | –
4 (≈ 2.47 µM) | – | 4 (≈ 2.47 µM) | 8 (≈ 4.94 µM) | 2 (≈ 1.23 µM) | 4 (≈ 2.47 µM) | 8 (≈ 4.94 µM) | 8 (≈ 4.94 µM) | 2 (≈ 1.23 µM) | 4 (≈ 2.47 µM) | 8 (≈ 4.94 µM) | 2 (≈ 1.23 µM) | 4 (≈ 2.47 µM) | 2 (≈ 1.23 µM) | 4 (≈ 2.47 µM) | CCCCCCCCCC(=O)N[C@@H](Cc1c[nH]c2ccccc12)C(=O)N[C@H](CC(N)=O)C(=O)N[C@@H](CC(=O)O)C(=O)N[C@@H]1C(=O)NCC(=O)N[C@@H](CCCN)C(=O)N[C@@H](CC(=O)O)C(=O)N[C@H](C)C(=O)N[C@@H](CC(=O)O)C(=O)NCC(=O)N[C@H](CO)C(=O)N[C@@H]([C@H](C)CC(=O)O)C(=O)N[C@@H](CC(=O)c2ccccc2N)C(=O)O[C@@H]1C [Daptomycin] | MIC90 ([1]; 46 clinical isolates): 8 µg/mL (≈ 4.94 µM); MIC90 ([1]; Enterococcus, 46 VRE isolates, read-out: MIC90): 8 µg/mL (≈ 4.94 µM)
> 32 | > 32 | > 32 | > 32 | 1 (≈ 2.09 µM) | > 32 | – | – | 32 (≈ 67 µM) | > 32 | > 32 | 32 (≈ 67 µM) | > 32 | > 32 | > 32 | CNC(C)C1CCC(N)C(OC2C(N)CC(N)C(OC3OCC(C)(O)C(NC)C3O)C2O)O1 (centres unmarked) [Gentamicin] | MIC90 ([4]; Streptococcus pneumoniae, 27 clinical isolates, read-out: MIC90): > 32 µg/mL
> 32 | > 32 | 2 (≈ 5.53 µM) | 32 (≈ 88.6 µM) | 0.25 (≈ 0.692 µM) | 0.5 (≈ 1.38 µM) | 16 (≈ 44.3 µM) | 16 (≈ 44.3 µM) | 0.5 (≈ 1.38 µM) | 16 (≈ 44.3 µM) | 32 (≈ 88.6 µM) | 16 (≈ 44.3 µM) | > 32 | 8 (≈ 22.1 µM) | > 32 | C[C@H]1COc2c(N3CCN(C)CC3)c(F)cc3c(=O)c(C(=O)O)cn1c23 [Levofloxacin] | –
– | – | – | – | – | – | – | – | – | – | – | – | – | – | – | CO/N=C(\C(=O)N[C@@H]1C(=O)N2C(C(=O)O)=C(CSc3nc(=O)c(=O)[nH]n3C)CS[C@H]12)c1csc(N)n1 [ceftriaxone] | protein-bound [8]: > 90%
– | – | – | – | – | – | – | – | – | – | – | – | – | – | – | O=C(O)c1cn(C2CC2)c2cc(N3CCNCC3)c(F)cc2c1=O [ciprofloxacin] | time-kill activity [9]: bactericidal (considered bactericidal if the original inoculum was reduced by 3 log CFU/mL (99.9%) at each concentration); time-kill activity [10]: bactericidal (considered bactericidal if the original inoculum was reduced by 3 log CFU/mL (99.9%) at each concentration); time-kill activity [11]: bactericidal (considered bactericidal if the original inoculum was reduced by 3 log CFU/mL (99.9%) at each concentration); time-kill activity [12]: bactericidal (considered bactericidal if the original inoculum was reduced by 3 log CFU/mL (99.9%) at each concentration)
– | – | – | – | – | – | – | – | – | – | – | – | – | – | – | teicoplanin | protein-bound [8]: > 90%

Compound | MIC50 [1, 13] [µg/mL] | MIC90 [1, 14] [µg/mL] | MIC50 [2] [µg/mL] | MIC90 [2] [µg/mL] | MIC50 [3, 15] [µg/mL] | MIC90 ([3]; 26 clinical isolates) [µg/mL] | MIC90 ([4]; 27 clinical isolates) [µg/mL] | MIC90 [4, 16] [µg/mL] | MIC50 [4, 17] [µg/mL] | MIC50 [5] [µg/mL] | MIC90 [5] [µg/mL] | MIC50 [6] [µg/mL] | MIC90 [6] [µg/mL] | MIC50 [7] [µg/mL] | MIC90 [7] [µg/mL] | further results
C[C@@H](O)[C@H]1C(=O)N2C(C(=O)O)=C(S[C@@H]3CN[C@H](C(=O)N(C)C)C3)[C@H](C)[C@H]12 [Meropenem] | > 32 | > 32 | 4 (≈ 10.4 µM) | 16 (≈ 41.7 µM) | – | 0.25 (≈ 0.652 µM) | 4 (≈ 10.4 µM) | 4 (≈ 10.4 µM) | 0.5 (≈ 1.3 µM) | > 32 | > 32 | – | – | – | – | MIC50 [3]: 0.125 µg/mL (≈ 0.326 µM)
Cc1onc(-c2ccccc2)c1C(=O)N[C@@H]1C(=O)N2[C@@H]1SC(C)(C)[C@@H]2C(=O)O [Oxacillin] | – | – | – | – | 0.5 (≈ 1.25 µM) | 1 (≈ 2.49 µM) | – | – | – | – | – | > 32 | > 32 | – | – | –

Source: article PMC9311539, “Antibacterial Activity against Clinical Isolates and In Vivo Efficacy of Coralmycins” (Antibiotics, 2022)
